Values of other authors in patent US20050137163A1, “Modified hyaluronic acid for use in musculoskeletal tissue repair” (priority 2003, published 2005).

Settings: investigated previously as an antimicrobial agent

## benzalconium chloride [BzCl]
  concentration shown to be safe: up to 0.1 % weight
